Measurements reported in patent US20250213712A1, “ANTIBODY DRUG CONJUGATES COMPRISING CAMPTOTHECIN DERIVATIVES AND USES THEREOF” (priority 2023, published 2025).
Read-outs that look alike come from different tables or passages of the source.

Columns and labels:
Assay in all cases: In vitro analysis of drugs (MTT cell viability)
[1] = tested on: NCI-N87 cancer cells; assay type: cell-based, human; conditions: read-out: IC50 ± SD (nM) NCI-N87 (Gastric)
Protocol: (§1) The drugs (compounds D1-D6, D21, D25, D27, D28, D35-D37, D46, D47, D48, D49 and controls DXd, FL118 and SN38) were evaluated on NCI-N87, MDA-MB-468, SK-BR-3, HCT116, and JIMT-1 cancer cells. The cancer cells were seeded in 96-well plates at a density of 2,000 to 5,000 cells per well in 100 µL of medium and cultured for 22 to 26 hours. The series of compound was diluted by serial dilution of 1:4˜1:8 from 2 μM to 1 pM with DMSO. The diluted drugs were added to triplicate wells of 96-well plates at 50 μL per well. All assays were performed, by repeating up to 3 times and the results were obtained in up to 3 independent experiments. The plates were incubated for 6 days at 37° C. in a humidified 5% CO2-in-air atmosphere. Cell viability was determined by the MTT assay. The 15 μL of 3-(4,5-dimethylthiazol-2-yl)-2,5-diphenyltetrazolium bromide (MTT) dye dissolved in PBS buffer solution (5 mg/mL) was added to each well of the plates. The formazans formed by reduction of the MTT dye by mitochondrial oxidoreductases in the living cells were dissolved in DMSO, the formazans measured using the absorbance at 550 nm. IC50 (half maximal inhibitory concentration) was generated using a sigmoidal dose-response nonlinear regression curve fit (GraphPad software Inc.).

[2] = tested on: SK-BR-3 cancer cells; assay type: cell-based; conditions: read-out: IC50 ± SD (nM) SK-BR3 (Breast)
Protocol: as §1

[3] = tested on: MDA-MB-468 cancer cells; assay type: cell-based; conditions: read-out: IC50 ± SD (nM) MDA-MB-468 (TNBC)
Protocol: as §1

[4] = Homo sapiens, MDA-MB-468, 144 h
[5] = Drugs, expression level 13.2 × 10^5, 6 days, MTT
[6] = Drugs, expression level 21.8 × 10^5, 6 days, MTT
[7] = Drugs, expression level 0.003 × 10^5, 6 days, MTT

Row | Structure (SMILES) | IC50 ([1]; Homo sapiens, NCI-N87, 144 h) | IC50 ([2]; Homo sapiens, SK-BR-3, 144 h) | IC50 [3, 4] | IC50 [1, 5] | IC50 [2, 6] | IC50 [3, 7]
1 | CC[C@@]1(O)C(=O)OCc2c1cc1n(c2=O)Cc2c-1nc1cc3c(cc1c2-c1ccc(O)cc1)OCO3 [Compound D21] | 1.49 ± 0.53 nM | 0.61 ± 0.03 nM | 0.38 ± 0.14 nM |  |  | 
2 | CC[C@@]1(O)C(=O)OCc2c1cc1n(c2=O)Cc2c-1nc1cc(F)c(O)c3c1c2C(O)CC3 (some centres unmarked) [Compound D25] | 27.6 ± 8.26 nM | 2.81 ± 0.43 nM | 4.49 ± 0.76 nM |  |  | 
3 | CC[C@@]1(O)C(=O)OCc2c1cc1n(c2=O)Cc2c-1nc1cc(F)c(O)cc1c2-c1ccco1 [Compound D27] | 6.52 ± 0.45 nM | 1.79 ± 0.34 nM | 0.86 ± 0.11 nM |  |  | 
4 | CC[C@@]1(O)C(=O)OCc2c1cc1n(c2=O)Cc2c-1nc1cc(F)c(O)cc1c2-c1ccoc1 [Compound D28] | 12.7 ± 4.2 nM | 5.31 ± 0.55 nM | 2.45 ± 0.37 nM |  |  | 
5 | CC[C@@]1(O)C(=O)OCc2c1cc1n(c2=O)Cc2c-1nc1cc3c(cc1c2CCc1ccc(O)cc1)OCO3 [Compound D35] | 5.57 nM |  | 1.71 nM |  |  | 
6 | CC[C@@]1(O)C(=O)OCc2c1cc1n(c2=O)Cc2c-1nc1cc3c(cc1c2-c1cccc(O)c1)OCO3 [Compound D36] | 1.19 ± 0.02 nM | 0.91 ± 0.13 nM | 0.52 ± 0.29 nM |  |  | 
7 | CC[C@@]1(O)C(=O)OCc2c1cc1n(c2=O)Cc2c-1nc1cc(F)c(C)cc1c2-c1ccc(O)cc1 [Compound D37] | 1.19 ± 0.25 nM | 0.89 ± 0.06 nM | 0.36 ± 0.23 nM |  |  | 
8 | CC[C@@]1(O)C(=O)OCc2c1cc1n(c2=O)Cc2c-1nc1cc(F)c(C)c3c1c2[C@@H](NCc1ccc(O)cc1)CC3 [Compound D46] | 2.2 ± 0.13 nM | 1.73 ± 0.19 nM | 0.92 ± 0.12 nM |  |  | 
9 | CC[C@@]1(O)C(=O)OCc2c1cc1n(c2=O)Cc2c-1nc1cc(F)c(C)c3c1c2[C@@H](NCCc1ccc(O)cc1)CC3 [Compound D47] | 2.13 nM | 1.8 nM | 0.96 nM |  |  | 
10 | CC[C@@]1(O)C(=O)OCc2c1cc1n(c2=O)Cc2c-1nc1cc(F)c(C)c3c1c2[C@@H](NC(=O)C(C)(O)C(F)(F)F)CC3 (some centres unmarked) [Compound D48] | 1.59 ± 0.09 nM | 1.06 ± 0.15 nM | 0.4 ± 0.11 nM |  |  | 
11 | CC[C@@]1(O)C(=O)OCc2c1cc1n(c2=O)Cc2c-1nc1cc(F)c(C)c3c1c2[C@@H](NC(=O)Cc1ccc(O)cc1)CC3 [Compound D49] | 6.11 ± 0.19 nM | 1.79 ± 0.24 nM | 0.83 ± 0.01 nM |  |  | 
12 | CC[C@@]1(O)C(=O)OCc2c1cc1n(c2=O)Cc2c-1nc1cc(F)c(C)c3c1c2[C@@H](NC(=O)CO)CC3 [DXd, reference compound] |  |  |  | 7.12 ± 1.75 nM | 1.87 ± 0.49 nM | 0.82 ± 0.3 nM
13 | CC[C@@]1(O)C(=O)OCc2c1cc1n(c2=O)Cc2cc3cc4c(cc3nc2-1)OCO4 [FL118, reference compound] |  |  |  | 1.04 ± 0.18 nM | 0.86 ± 0.1 nM | 0.37 ± 0.17 nM
14 | CCc1c2c(nc3ccc(O)cc13)-c1cc3c(c(=O)n1C2)COC(=O)[C@]3(O)CC [SN38, reference compound] |  |  |  | 6.52 ± 1.55 nM | 1.82 ± 1.21 nM | 0.68 ± 0.14 nM
